Laboratory results published in US8642548B2 (Mannkind Corporation, priority 2009, dated 2014).

Assay: Phase 1a trial of GLP-1/FDKP inhalation powder: insulin, glucose, gastric emptying
Type: in vivo, human

SMILES: CC[C@H](C)[C@H](NC(=O)[C@H](Cc1ccccc1)NC(=O)[C@H](CCC(=O)O)NC(=O)[C@H](CCCCN)NC(=O)[C@H](C)NC(=O)[C@H](C)NC(=O)[C@H](CCC(N)=O)NC(=O)CNC(=O)[C@H](CCC(=O)O)NC(=O)[C@H](CC(C)C)NC(=O)[C@H](Cc1ccc(O)cc1)NC(=O)[C@H](CO)NC(=O)[C@H](CO)NC(=O)[C@@H](NC(=O)[C@H](CC(=O)O)NC(=O)[C@H](CO)NC(=O)[C@@H](NC(=O)[C@H](Cc1ccccc1)NC(=O)[C@@H](NC(=O)CNC(=O)[C@H](CCC(=O)O)NC(=O)[C@H](C)NC(=O)[C@@H](N)Cc1c[nH]cn1)[C@@H](C)O)[C@@H](C)O)C(C)C)C(=O)N[C@@H](C)C(=O)N[C@@H](Cc1c[nH]c2ccccc12)C(=O)N[C@@H](CC(C)C)C(=O)N[C@H](C(=O)N[C@@H](CCCCN)C(=O)NCC(=O)N[C@@H](CCCNC(=N)N)C(N)=O)C(C)C [GLP-1, glucagon-like peptide 1]
- mean fasting plasma glucose (1.5 mg GLP-1 inhaled, 20 min after dosing, from 85 mg/dL): 70 mg/dL
- inhibition of gastric emptying (pulmonary administration, dry powder, data not shown): lack inhibition of gastric emptying
